Results taken from PubChem BioAssay AID330 (DTP/NCI, 2004).
“And” between values parts separate entries of the source, which are not always exact repeats. Identical values can stand only once. Toxic doses and inconclusive results are not listed. Rule for the calls: active = survival T/C of 150% or more; inactive = T/C below 125% in these data.

Test system: P388 leukemia ip, CD2F1 mice, survival T/C
Test: NCI In Vivo Anticancer Drug Screen. Data for tumor model P388 Leukemia (intraperitoneal) in CD2F1 (CDF1) mice
Conditions: endpoint: median survival time, higher = longer survival
Outline: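 Mice carrying the transplanted tumor received test compound or vehicle. Survival was recorded in each group, and the value is the treated-group measurement divided by that of the vehicle-treated control group.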

[1] = dose: 50.0 mg/kg/injection, schedule: Q01DX005 (ip), vehicle: Klucel (hydroxypropylcellulose) (HPC)
[2] = dose: 100.0 mg/kg/injection, schedule: Q01DX005 (ip), vehicle: Klucel (hydroxypropylcellulose) (HPC)
[3] = dose: 200.0 mg/kg/injection, schedule: Q01DX005 (ip), vehicle: Klucel (hydroxypropylcellulose) (HPC)
[4] = dose: 50.0 mg/kg/injection, schedule: Q01DX005 (ip), vehicle: saline
[5] = dose: 100.0 mg/kg/injection, schedule: Q01DX005 (ip), vehicle: saline
[6] = dose: 200.0 mg/kg/injection, schedule: Q01DX005 (ip), vehicle: saline
[7] = dose: 25.0 mg/kg/injection, schedule: Q01DX005 (ip), vehicle: Klucel (hydroxypropylcellulose) (HPC)
[8] = dose: 25.0 mg/kg/injection, schedule: Q04DX003 (ip), vehicle: saline with Tween-80
[9] = dose: 50.0 mg/kg/injection, schedule: Q01DX009 (ip), vehicle: saline
[10] = dose: 100.0 mg/kg/injection, schedule: Q01DX009 (ip), vehicle: saline
[11] = dose: 200.0 mg/kg/injection, schedule: Q01DX009 (ip), vehicle: saline
[12] = dose: 400.0 mg/kg/injection, schedule: Q01DX009 (ip), vehicle: saline

Measured: T/C

CCN(CC)OC(=O)/C=C/c1ccccc1
inactive: dose: 30.0 mg/kg/injection, schedule: Q01DX005 (ip), vehicle: saline with Tween-80 95 % of control | dose: 60.0 mg/kg/injection, schedule: Q01DX005 (ip), vehicle: saline with Tween-80 98 % of control and 93 % of control | dose: 120.0 mg/kg/injection, schedule: Q01DX005 (ip), vehicle: saline with Tween-80 86 % of control

Cc1nc2ncn(-c3ccccc3)c2c(=O)n1-c1ccccc1
inactive: [1] 100 % of control | [2] 100 % of control | [3] 100 % of control

CCc1c(O)sc2c(c1=O)C(=NCC(C)C)CC(C)(C)N2
inactive: [4] 86 % of control | [5] 94 % of control | [6] 97 % of control

CC(=O)OCC(=O)[C@@]12OC(C)(C)O[C@@H]1C[C@H]1[C@@H]3CC(C=O)=C4C=C(OCCCl)CC[C@]4(C)[C@@]3(F)[C@@H](O)C[C@@]12C
inactive: dose: 0.39 mg/kg/injection, schedule: Q01DX009 (ip), vehicle: Klucel (hydroxypropylcellulose) (HPC) 106 % of control | dose: 0.78 mg/kg/injection, schedule: Q01DX009 (ip), vehicle: Klucel (hydroxypropylcellulose) (HPC) 113 % of control | dose: 1.56 mg/kg/injection, schedule: Q01DX009 (ip), vehicle: Klucel (hydroxypropylcellulose) (HPC) 115 % of control

NC1=NCc2c(sc3c2CCCC3)N1
inactive: dose: 12.5 mg/kg/injection, schedule: Q01DX005 (ip), vehicle: Klucel (hydroxypropylcellulose) (HPC) 104 % of control | [7] 104 % of control | [1] 98 % of control and 103 % of control

c1ccc2c(c1)Cc1c(-c3ccncc3)n[nH]c1-2
inactive: [8] 100 % of control | dose: 50.0 mg/kg/injection, schedule: Q04DX003 (ip), vehicle: saline with Tween-80 98 % of control | dose: 100.0 mg/kg/injection, schedule: Q04DX003 (ip), vehicle: saline with Tween-80 94 % of control | dose: 200.0 mg/kg/injection, schedule: Q04DX003 (ip), vehicle: saline with Tween-80 94 % of control

CC(=O)OCC1OC(n2cccc(OC(C)=O)c2=O)C(OC(C)=O)C1OC(C)=O (configuration not stated)
inactive: [4] 103 % of control | dose: 50.0 mg/kg/injection, schedule: Q01DX005 (ip), vehicle: suspension in saline 99 % of control | [5] 99 % of control | dose: 100.0 mg/kg/injection, schedule: Q01DX005 (ip), vehicle: suspension in saline 99 % of control | [6] 102 % of control | dose: 200.0 mg/kg/injection, schedule: Q01DX005 (ip), vehicle: suspension in saline 113 % of control | dose: 400.0 mg/kg/injection, schedule: Q01DX005 (ip), vehicle: saline 98 % of control | dose: 400.0 mg/kg/injection, schedule: Q01DX005 (ip), vehicle: suspension in saline 96 % of control

N#Cc1c(-c2ccccc2)nc2n1CCS2
inactive: dose: 100.0 mg/kg/injection, schedule: Q01DX001 (ip), vehicle: Klucel (hydroxypropylcellulose) (HPC) 102 % of control | dose: 200.0 mg/kg/injection, schedule: Q01DX001 (ip), vehicle: Klucel (hydroxypropylcellulose) (HPC) 100 % of control | dose: 400.0 mg/kg/injection, schedule: Q01DX001 (ip), vehicle: Klucel (hydroxypropylcellulose) (HPC) 100 % of control

COc1ccc(/C=C2/C/C(=C/c3ccc(OC)cc3)C2=O)cc1
inactive: dose: 100.0 mg/kg/injection, schedule: Q04DX003 (ip), vehicle: Klucel (hydroxypropylcellulose) (HPC) 95 % of control | dose: 200.0 mg/kg/injection, schedule: Q04DX003 (ip), vehicle: Klucel (hydroxypropylcellulose) (HPC) 103 % of control | dose: 400.0 mg/kg/injection, schedule: Q04DX003 (ip), vehicle: Klucel (hydroxypropylcellulose) (HPC) 97 % of control

O=C(O)C1CCN1C1CCCCC1 (configuration not stated)
inactive: dose: 100.0 mg/kg/injection, schedule: Q01DX009 (ip), vehicle: saline sonified 90 % of control | dose: 200.0 mg/kg/injection, schedule: Q01DX009 (ip), vehicle: saline sonified 100 % of control | dose: 400.0 mg/kg/injection, schedule: Q01DX009 (ip), vehicle: saline sonified 104 % of control

CC(C)C12CCC3(CCC4C(C)(C(=O)O)CCCC4(C)C3C1)C(CN)C2 (configuration not stated)
inactive: [7] 101 % of control | [1] 106 % of control | [2] 99 % of control | [3] 100 % of control

C[S+](C)CCO
inactive: [9] 100 % of control | [10] 102 % of control | [11] 98 % of control | [12] 95 % of control

CN(C)Cc1ccc2ccccc2c1O
inactive: [9] 104 % of control | [10] 109 % of control

Nc1cc2nnc(-c3ccccc3)c(-c3ccccc3)n2n1
inactive: dose: 25.0 mg/kg/injection, schedule: Q04DX002 (ip), vehicle: saline with Tween-80 91 % of control | dose: 50.0 mg/kg/injection, schedule: Q04DX002 (ip), vehicle: saline with Tween-80 86 % of control

Fc1ccc(NC(=S)SCc2ccc(Cl)c(Cl)c2)cc1F
inactive: dose: 12.5 mg/kg/injection, schedule: Q01DX009 (ip), vehicle: Klucel (hydroxypropylcellulose) (HPC) 124 % of control | dose: 100.0 mg/kg/injection, schedule: Q01DX009 (ip), vehicle: Klucel (hydroxypropylcellulose) (HPC) 116 % of control and 96 % of control

COc1ccc(/C=C/C(=O)c2c(N)n(C)c(=O)n(C)c2=O)cc1
inactive: [1] 91 % of control | [2] 88 % of control

Cc1ccc(N)c(O)c1
inactive: [10] 102 % of control and 105 % of control | [11] 100 % of control and 103 % of control | [12] 101 % of control and 113 % of control | dose: 600.0 mg/kg/injection, schedule: Q01DX009 (ip), vehicle: saline 115 % of control

COc1ccc2c(C)cc(=O)sc2c1
inactive: dose: 50.0 mg/kg/injection, schedule: Q01DX009 (ip), vehicle: saline + Tween-80 + alcohol 101 % of control | dose: 100.0 mg/kg/injection, schedule: Q01DX009 (ip), vehicle: saline + Tween-80 + alcohol 104 % of control | dose: 200.0 mg/kg/injection, schedule: Q01DX009 (ip), vehicle: saline + Tween-80 + alcohol 100 % of control

C/C(=N\OC(=O)c1ccccc1)c1ccccc1
inactive: dose: 100.0 mg/kg/injection, schedule: Q04DX003 (ip), vehicle: saline 102 % of control | dose: 200.0 mg/kg/injection, schedule: Q04DX003 (ip), vehicle: saline 102 % of control | dose: 400.0 mg/kg/injection, schedule: Q04DX003 (ip), vehicle: saline 100 % of control

O=C1OCC2CC3C4C=CC(C4)C3C12 (configuration not stated)
inactive: [1] 103 % of control | [2] 93 % of control

O=C(CN1CCCCCC1)Nc1ccc2c(c1)C(=O)c1ccc(NC(=O)CN3CCCCCC3)cc1C2=O
inactive: [1] 89 % of control | dose: 50.0 mg/kg/injection, schedule: Q01DX005 (ip), vehicle: acid diluted with saline 97 % of control | [2] 89 % of control | dose: 100.0 mg/kg/injection, schedule: Q01DX005 (ip), vehicle: acid diluted with saline 99 % of control | dose: 200.0 mg/kg/injection, schedule: Q01DX005 (ip), vehicle: acid diluted with saline 100 % of control

COC(=O)c1[c]([Sn]([CH3])([CH3])[CH3])n[n]([Sn]([CH3])([CH3])[CH3])c1C(=O)OC
inactive: dose: 6.25 mg/kg/injection, schedule: Q04DX003 (ip), vehicle: saline 98 % of control | dose: 12.5 mg/kg/injection, schedule: Q04DX003 (ip), vehicle: saline 98 % of control

CC(=N/NC(=S)NCCN1CCCCC1)/C(C)=N\NC(=S)NCCN1CCCCC1
inactive: dose: 0.78 mg/kg/injection, schedule: Q01DX009 (ip), vehicle: saline 106 % of control | dose: 1.56 mg/kg/injection, schedule: Q01DX009 (ip), vehicle: saline 94 % of control | dose: 3.13 mg/kg/injection, schedule: Q01DX009 (ip), vehicle: saline 97 % of control | dose: 6.25 mg/kg/injection, schedule: Q01DX009 (ip), vehicle: saline 103 % of control | dose: 12.5 mg/kg/injection, schedule: Q04DX003 (ip), vehicle: saline with Tween-80 108 % of control | [8] 101 % of control
